Results: publication PMC7889164, “Efficient expression of a cnidarian peptide-gated ion channel in mammalian cells” (Channels, 2021)
Read-outs that look alike come from different tables or passages of the source.

Columns and labels:
[1] = test system: HyNaC2/3/5; test: Whole-cell patch clamp, current density, HEK 293 cells expressing HyNaC2/3/5 (native or codon-optimized); assay type: cell-based, Hydra magnipapillata; conditions: for current density: holding potential −70 mV, mean ± SD
Procedure: (§1) Cells were grown at 37 °C in a humidified atmosphere with 5% CO2. HEK 293 T and COS-7 cells were maintained as an adherent monolayer in Dulbecco’s modified Eagle’s medium supplemented with 10% FBS and 2 mM L-glutamine. Cells were passaged every 2–3 days.
(§2) Holding potential was −70 mV.
(§3) Statistical significance was defined as p < 0.05.

[2] = test system: HyNaC2/3/5; test: Whole-cell patch clamp, current density, COS-7 cells expressing HyNaC2/3/5 (native or codon-optimized); assay type: cell-based, Hydra magnipapillata; conditions: for current density: holding potential −70 mV, mean ± SD
Procedure: as §1, §2, §3

[3] = test system: HyNaC2/3/5; conditions: Xenopus oocytes, ref [3], cited from earlier work
[4] = test system: HyNaCs; conditions: ref [1–3]; cited from earlier work
Source text: Electrophysiological properties of HyNaCs have been successfully characterized in Xenopus laevis oocytes [[1–3],[6]]. While expression in oocytes typically results in large current amplitudes of the foreign ion channel, expression in mammalian expression systems is better suited to study, for example, trafficking and regulation of an ion channel. In this study, we, therefore, expressed HyNaC2/3/5 ...

[5] = test system: HyNaC2/3/5; test: Concentration-response curve (whole-cell patch clamp), codon-optimized HyNaC2/3/5 in HEK cells; assay type: cell-based, Hydra magnipapillata; conditions: codon-optimized HyNaC2/3/5, HEK cells, −70 mV, pH 7.4, RT, mean ± S.D., n = 8, read-out: apparent affinity (EC50, Hill fit)
Source text: as §2
where I is the current, [X] is the peptide concentration, Imin and Imax are the […] currents, respectively, EC50 is the concentration at which 50% of the maximal current is obtained, and H is the Hill coefficient (GraphPad Prism 6.0).

[6] = test system: HyNaC2/3/5; test: Ca^2+ imaging (Fura-2), HEK 293 cells expressing HyNaC2/3/5; assay type: cell-based, Hydra magnipapillata; conditions: 1 µM Hydra-RFamide II, Fura-2 340/380 nm, 6 experiments, 2 transfections, ionomycin 1 µM positive control
Procedure: For Ca^2+ imaging, cells were grown on coverslips and transfected as described for electrophysiological recordings. Approximately 48 h after transfection, cells were loaded with 2 µM of Fura-2-AM (Molecular Probes) for 30 min at 37 °C. Subsequently, the coverslips were mounted in a cell chamber and perfused with bath solution. Fura-2 was excited at 340/380 nm and the emission was recorded between 470 and 550 nm on an inverted microscope (IX71, Olympus, Chromaphor) using a sensicam CCD camera (PCO imaging). Acquisition and data analysis were performed using Till Vision real-time imaging software (Till Photonics). At the end of each experiment, a bath solution containing 1 µM ionomycin was used as a positive control.
as §3

[7] = test system: HyNaC2/3/5 (HA-tagged or untagged subunits); test: Whole-cell current density of codon-optimized HyNaC2/3/5 with or without C-terminal HA-tags; conditions: RFamide II 1 µM, mean ± S.E.M.
Procedure: The tags were separated from the coding sequence by a flexible linker ([sequence]). Fusion was performed in a two-step PCR protocol. For HyNaC2, the forward primer was 5’-[sequence]-3’, and the reverse primers were 5’-[sequence]-3’ and 5’-[sequence]-3’. For HyNaC3, the forward primer was 5’-[sequence]-3’, and the reverse primers were 5’-[sequence]-3’ and 5’-[sequence]-3’. And for HyNaC5, the forward primer was 5’-[sequence]-3’, and the reverse primers were 5’-[sequence]-3’ and 5’-[sequence]-3’. Constructs were cloned into pcDNA3.1(-) using BamHI and BbsI (HyNaC2) or BamHI and KpnI (HyNaC3 and HyNaC5). The sequences of the constructs were confirmed by sequencing of the full coding sequence (Eurofins Genomics).
Codon optimization of HyNaC2, HyNaC3, and HyNaC5 to Homo sapiens codon usage preferences was performed by BioCat GmbH (Heidelberg, Germany). The cDNA was synthesized with a C-terminal flexible linker ([sequence]) followed by three HA-tags and cloned into pcDNA3.1(-) using the same restriction sites as above. To create the codon-optimized constructs without linkers and tags, PCR was performed to insert an additional restriction site of either BbsI (HyNaC2) or KpnI (HyNaC3 and HyNaC5) between the end of the HyNaC coding sequence and the start of the linker. The resulting constructs were digested with the respective restriction enzymes and cloned into pcDNA3.1(-). The successful removal of linkers and tags was confirmed by sequencing (Eurofins Genomics).
Cells were transfected with 0.6 µg each of HyNaC2, HyNaC3, and HyNaC5 plus 0.2 µg of GFP per 35 mm dish using calcium phosphate transfection. Approximately 48 h after transfection, the culture dish with attached cells was mounted on the stage of an inverted phase-contrast microscope (IX71, Olympus). The recording chamber was perfused with the following bath solution (in mM): NaCl 128, KCl 5.4, HEPES 10, glucose 5.5, MgCl2 1, CaCl2 2; pH was adjusted with NaOH to 7.4 at RT (22–25 °C).
Patch-clamp experiments were performed in the whole-cell configuration, using an Axon-200B amplifier (Molecular Devices; San Jose, CA, USA) and an Axon Digidata 1440 A acquisition system controlled by the Clampex 10.0 software (Molecular Devices). Signals were low pass filtered at 1 kHz and digitized at 4 kHz. Micropipettes (4–6 MΩ) were prepared from borosilicate glass capillaries with a micropipette puller (DMZ-Universal Electrode Puller; Zeitz Instruments, Martinsried, Germany) and filled with an intracellular solution containing (in mM): NaCl 10, KCl 121, HEPES 10, EGTA 5, MgCl2 2. Holding potential was −70 mV. Capacitance and series resistances were compensated electronically at 80% and digital data were stored in a compatible PC for off-line analysis using Clampfit 10.0 software (Molecular Devices).
Electrophysiological data were analyzed offline using Clampfit 10.0 (Molecular Devices). Current density was obtained by dividing the maximal current amplitude (pA) by cell capacitance (pF). Data are presented as mean ± S.D., except for data in Figure 5, which are shown as mean ± S.E.M. The concentration–response curve for RFamide-II and codon-optimized HyNaCs was fitted to a Hill function: I=Imin+ Imax−Imin/1 + X/EC50^H
Statistical analysis was done using an unpaired t-test to compare two conditions and a one-way ANOVA (GraphPad Prism 6.0) for more than two conditions. Statistical significance was defined as p < 0.05.

pQWLGGRFamide [Hydra-RFamide I]
type of current elicited ([1]; native HyNaC2/3/5, HEK cells, 10 µM RFamide I): sustained inward currents | current density ([1]; native HyNaC2/3/5, HEK cells, 10 µM RFamide I, pH 7.4, RT (22–25 °C), n = 12): 42 ± 10 pA/pF | current amplitude compared with Hydra-RFamide II ([2]; codon-optimized HyNaC2/3/5, COS-7 cells, text: 1 µM Hydra-RFamide I (Figure 3B legend: 10 µM), n = 10, p = 0.87 (unpaired t-test)): comparable current amplitudes | current density ([2]; native HyNaC2/3/5, COS-7 cells, 10 µM RFamide I, pH 7.4, RT (22–25 °C), n = 12, p < 0.001 vs HEK): 5 ± 2 pA/pF | response in oocytes ([3]; 10 µM Hydra-RFamide I): maximal response | activation of HyNaCs [4]: directly activated

pQWFNGRFamide [Hydra-RFamide II]
type of current elicited ([1]; codon-optimized HyNaC2/3/5, HEK cells, 1 µM Hydra-RFamide II): sustained inward currents | current density ([1]; codon-optimized HyNaC2/3/5, HEK cells, 1 µM Hydra-RFamide II, pH 7.4, RT, n = 15, p < 0.001 vs native): 113 ± 9 pA/pF | type of current elicited ([2]; codon-optimized HyNaC2/3/5, COS-7 cells, 1 µM Hydra-RFamide II): sustained inward currents | current density ([2]; codon-optimized HyNaC2/3/5, COS-7 cells, 1 µM Hydra-RFamide II, pH 7.4, RT, n = 10, p < 0.001 vs native): 17 ± 9 pA/pF | current amplitude compared with Hydra-RFamide I ([2]; codon-optimized HyNaC2/3/5, COS-7 cells, text: 10 µM Hydra-RFamide II (Figure 3B legend: 1 µM), n = 10, p = 0.87 (unpaired t-test)): comparable current amplitudes | current density ([2]; native HyNaC2/3/5, COS-7 cells, text: 1 µM Hydra-RFamide II (Figure 3 legend: native trace 10 µM RFamide I), n = 12): 2 ± 3 pA/pF | EC50 [5]: 140 ± 30 nM | intracellular Ca^2+ signals ([6]; HEK 293 cells expressing codon-optimized HyNaC2/3/5, n = 48 cells, p < 0.001 vs native): robust intracellular Ca^2+ signals | intracellular Ca^2+ increase ([6]; HEK 293 cells expressing native HyNaC2/3/5, n = 36 cells): hardly increased intracellular Ca^2+ above background | response in oocytes ([3]; 1 µM Hydra-RFamide II): maximal response | activation of HyNaCs [4]: directly activated | current density ([7]; HyNaC2 carried the HA-tag, n = 7–8, p < 0.05 vs untagged): 49 ± 9 pA/pF | current density ([7]; HyNaC3 carried the HA-tag, n = 7–8, p < 0.05 vs untagged): 57 ± 8 pA/pF | current density ([7]; HyNaC5 carried the HA-tag, n = 7–8, p < 0.05 vs untagged): 50 ± 9 pA/pF | current density ([7]; all subunits carrying an HA-tag, n = 7, p < 0.0001): 22 ± 7 pA/pF | current density ([7]; no subunit carried the tag, n = 7–8): 84 ± 9 pA/pF
